Data from patent publication US20160108004A1, “TREATMENT OR PREVENTION OF NEURODEGENERATIVE DISORDERS USING MENTHOL, LINALOOL AND/OR ICILIN” (NESTEC S.A., priority 2013, published 2016).

Tests used:
[1] = test system: Lateral Amygdala glutamatergic neuron; test: whole cell, current clamp recordings in a Lateral Amygdala glutamatergic neuron (mouse brain slice); type: cell-based; conditions: for inactivation of the sodium fast channels relative to control: square pulse of 2.5 s at high depolarization of membrane potential (approximately −30 mV), FIG. 2
Text: (§1) A mouse brain slice was used to study the effects of Menthol, Linalool and Icilin. The amygdaloid complex is located within the medial temporal lobe in neocortex and amygdala. The lateral and basolateral nuclei of the amygdaloid complex receive sensory information from cortical and thalamic structures, process the information, and then transmit the information, either directly or through the basal nucleus, to the central nucleus. For experimental analysis of neural activity, synaptic responses from the basolateral complex can be evoked electrically using electrodes, and the action potentials can be measured.
A square pulse of 2.5 s was applied at high depolarization of membrane potential (approximately −30 mV).

[2] = test system: Lateral Amygdala glutamatergic neuron; test: whole cell, current clamp recordings with increasing concentration of gabazine (spontaneous action potential bursts); type: cell-based, mouse
Text: as §1

SMILES | amount of current required to trigger an action potential [1] | threshold to trigger an action potential [1] | action potentials at higher stimulation levels [1] | inactivation of the sodium fast channels relative to control [1] | spontaneous bursts in the presence of gabazine ([2]; Menthol 250 μM applied extracellularly 10 minutes previous to and during exposure to increasing concentrations of gabazine, FIG. 5 compared to FIG. 3) | spontaneous action potential bursts ([2]; increasing concentrations of gabazine applied extracellularly, recordings of 5 min each, washout 10 min, FIG. 3)
O=C1NC(c2cccc([N+](=O)[O-])c2)=CCN1c1ccccc1O [Icilin] | increase the amount of current required to trigger an action potential | increase the threshold to trigger an action potential | abort action potentials at higher stimulation levels | inactivation of the sodium fast channels happens sooner relative to control | – | –
C=CC(C)(O)CCC=C(C)C (centres unmarked) [Linalool] | increase the amount of current required to trigger an action potential | increase the threshold to trigger an action potential | abort action potentials at higher stimulation levels | inactivation of the sodium fast channels happens sooner relative to control | – | –
CC1CCC(C(C)C)C(O)C1 (centres unmarked) [Menthol] | increase the amount of current required to trigger an action potential | increase the threshold to trigger an action potential | abort action potentials at higher stimulation levels | inactivation of the sodium fast channels happens sooner relative to control | complete absence or a strongly decreased presence of spontaneous bursts | –
COc1ccc(-c2ccc(=N)n(CCCC(=O)O)n2)cc1 [gabazine, reference compound] | – | – | – | – | – | neurons spontaneously present action potential bursts
